Columns and labels:
Type in all cases: cell-based
Conditions in all cases: compounds at 50 nM and 500 nM
IKZF1 = molecular target: T1, IKZF1 (Homo sapiens, UniProt Q13422+Q96SW2); test: Western blot degradation of IKZF1 in hPBMCs (24 h)
T1 construct: The supernatant was aspirated as the extracted total cell protein; endogenous in cells; host or cells: human peripheral blood mononuclear cells (hPBMCs)
Summary of the method: (§1)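 Immunoblot densitometry quantifies target loss in hPBMCs after a 24 h compound exposure (50 nM, 500 nM). Percent remaining is normalised band intensity; DC50 is the concentration giving half the DMSO-control band grayscale.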

GSPT1 = molecular target: T2, GSPT1 (Homo sapiens, UniProt P15170+Q96SW2); test: Western blot degradation of GSPT1 in hPBMCs (24 h)
T2 construct: The supernatant was aspirated as the extracted total cell protein; endogenous in cells; host or cells: human peripheral blood mononuclear cells (hPBMCs)
Summary of the method: as §1

IKZF2 = molecular target: T3, IKZF2 (Homo sapiens, UniProt Q96SW2+Q9UKS7); test: Western blot degradation of IKZF2 in hPBMCs (24 h)
T3 construct: The supernatant was aspirated as the extracted total cell protein; endogenous in cells; host or cells: human peripheral blood mononuclear cells (hPBMCs)
Summary of the method: as §1

IKZF3 = molecular target: T4, IKZF3 (Homo sapiens, UniProt Q96SW2+Q9UKT9); test: Western blot degradation of IKZF3 in hPBMCs (24 h)
T4 construct: The supernatant was aspirated as the extracted total cell protein; endogenous in cells; host or cells: human peripheral blood mononuclear cells (hPBMCs)
Summary of the method: as §1

WEE1 = molecular target: T5, WEE1 (Homo sapiens, UniProt P30291+Q96SW2); test: Western blot degradation of WEE1 in hPBMCs (24 h)
T5 construct: The supernatant was aspirated as the extracted total cell protein; endogenous in cells; host or cells: human peripheral blood mononuclear cells (hPBMCs)
Summary of the method: as §1

CK1α = molecular target: T6, CK1α (Homo sapiens, UniProt P48729+Q96SW2); test: Western blot degradation of CK1α in hPBMCs (24 h)
T6 construct: The supernatant was aspirated as the extracted total cell protein; endogenous in cells; host or cells: human peripheral blood mononuclear cells (hPBMCs)
Summary of the method: as §1

T4 sequence (Q9UKT9 whole entry): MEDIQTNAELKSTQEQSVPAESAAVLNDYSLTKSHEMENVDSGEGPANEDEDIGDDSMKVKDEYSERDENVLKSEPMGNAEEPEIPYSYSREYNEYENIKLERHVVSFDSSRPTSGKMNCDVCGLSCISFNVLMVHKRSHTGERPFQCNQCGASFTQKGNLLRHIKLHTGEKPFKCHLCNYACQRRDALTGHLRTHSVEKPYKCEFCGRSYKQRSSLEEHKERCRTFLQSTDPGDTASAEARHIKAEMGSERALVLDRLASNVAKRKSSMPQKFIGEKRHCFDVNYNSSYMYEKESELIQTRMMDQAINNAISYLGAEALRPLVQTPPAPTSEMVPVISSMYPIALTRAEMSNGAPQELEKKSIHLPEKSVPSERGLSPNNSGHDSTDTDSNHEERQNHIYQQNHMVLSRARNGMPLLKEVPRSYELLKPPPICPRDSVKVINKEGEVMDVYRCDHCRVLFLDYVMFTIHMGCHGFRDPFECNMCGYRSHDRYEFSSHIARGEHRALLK
T4 sequence (Q96SW2 whole entry): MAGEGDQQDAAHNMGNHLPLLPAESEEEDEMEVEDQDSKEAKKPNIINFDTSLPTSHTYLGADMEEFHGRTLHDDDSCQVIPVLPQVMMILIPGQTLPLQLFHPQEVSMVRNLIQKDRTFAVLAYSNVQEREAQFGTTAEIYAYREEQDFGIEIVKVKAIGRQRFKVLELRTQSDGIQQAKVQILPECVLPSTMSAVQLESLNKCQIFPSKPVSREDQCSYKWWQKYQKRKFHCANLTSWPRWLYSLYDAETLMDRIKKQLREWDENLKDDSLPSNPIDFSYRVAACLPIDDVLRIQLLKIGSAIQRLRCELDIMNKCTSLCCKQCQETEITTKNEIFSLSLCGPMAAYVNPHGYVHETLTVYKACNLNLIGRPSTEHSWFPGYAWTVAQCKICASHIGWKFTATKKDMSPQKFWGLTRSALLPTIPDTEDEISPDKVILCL
T4 sequence (Q16531 whole entry partner): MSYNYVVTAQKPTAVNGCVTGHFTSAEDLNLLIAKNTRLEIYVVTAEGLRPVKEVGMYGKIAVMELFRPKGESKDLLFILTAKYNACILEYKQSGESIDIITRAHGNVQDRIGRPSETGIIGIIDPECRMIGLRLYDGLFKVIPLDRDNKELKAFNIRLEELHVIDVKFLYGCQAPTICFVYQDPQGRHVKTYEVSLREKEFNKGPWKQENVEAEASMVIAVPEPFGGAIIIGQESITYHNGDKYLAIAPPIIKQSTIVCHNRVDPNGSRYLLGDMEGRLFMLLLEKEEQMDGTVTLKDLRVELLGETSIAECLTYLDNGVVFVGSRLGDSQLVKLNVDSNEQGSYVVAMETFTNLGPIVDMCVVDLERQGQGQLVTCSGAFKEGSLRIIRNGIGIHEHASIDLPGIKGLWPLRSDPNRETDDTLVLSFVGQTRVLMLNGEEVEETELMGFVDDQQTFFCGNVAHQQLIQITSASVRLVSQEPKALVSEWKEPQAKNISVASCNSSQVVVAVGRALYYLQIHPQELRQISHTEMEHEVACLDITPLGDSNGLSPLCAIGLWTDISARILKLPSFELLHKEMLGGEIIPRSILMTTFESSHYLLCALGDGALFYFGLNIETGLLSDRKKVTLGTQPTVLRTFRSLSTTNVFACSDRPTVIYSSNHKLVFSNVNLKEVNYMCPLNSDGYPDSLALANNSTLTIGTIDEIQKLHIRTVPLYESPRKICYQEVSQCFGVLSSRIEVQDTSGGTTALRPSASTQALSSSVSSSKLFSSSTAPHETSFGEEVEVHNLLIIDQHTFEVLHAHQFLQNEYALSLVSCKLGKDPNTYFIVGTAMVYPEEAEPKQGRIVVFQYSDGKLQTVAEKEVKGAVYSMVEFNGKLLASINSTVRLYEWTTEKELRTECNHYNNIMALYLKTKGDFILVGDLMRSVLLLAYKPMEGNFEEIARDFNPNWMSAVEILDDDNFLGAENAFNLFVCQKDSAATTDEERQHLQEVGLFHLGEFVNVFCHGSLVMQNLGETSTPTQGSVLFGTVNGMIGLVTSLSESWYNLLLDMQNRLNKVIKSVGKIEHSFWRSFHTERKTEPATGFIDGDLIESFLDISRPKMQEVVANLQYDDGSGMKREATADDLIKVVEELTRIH
T1 sequence (Q13422 whole entry): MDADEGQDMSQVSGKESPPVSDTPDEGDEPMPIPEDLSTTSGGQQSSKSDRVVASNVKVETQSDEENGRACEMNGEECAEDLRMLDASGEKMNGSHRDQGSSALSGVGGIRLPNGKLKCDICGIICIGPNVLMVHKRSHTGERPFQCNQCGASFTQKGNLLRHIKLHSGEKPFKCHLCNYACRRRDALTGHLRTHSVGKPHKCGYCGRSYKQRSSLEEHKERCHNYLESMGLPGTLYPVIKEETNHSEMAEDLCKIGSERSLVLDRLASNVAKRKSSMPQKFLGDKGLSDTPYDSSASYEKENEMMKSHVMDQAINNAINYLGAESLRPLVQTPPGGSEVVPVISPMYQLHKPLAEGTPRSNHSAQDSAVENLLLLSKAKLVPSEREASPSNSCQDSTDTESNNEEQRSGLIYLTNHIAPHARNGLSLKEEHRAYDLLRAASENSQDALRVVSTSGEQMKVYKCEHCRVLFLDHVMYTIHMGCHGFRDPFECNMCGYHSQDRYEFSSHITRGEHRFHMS
T1 sequence (Q96SW2 whole entry): as the sequence (Q96SW2 whole entry) above
T1 sequence (Q16531 whole entry partner): as the sequence (Q16531 whole entry partner) above
T6 sequence (P48729 whole entry): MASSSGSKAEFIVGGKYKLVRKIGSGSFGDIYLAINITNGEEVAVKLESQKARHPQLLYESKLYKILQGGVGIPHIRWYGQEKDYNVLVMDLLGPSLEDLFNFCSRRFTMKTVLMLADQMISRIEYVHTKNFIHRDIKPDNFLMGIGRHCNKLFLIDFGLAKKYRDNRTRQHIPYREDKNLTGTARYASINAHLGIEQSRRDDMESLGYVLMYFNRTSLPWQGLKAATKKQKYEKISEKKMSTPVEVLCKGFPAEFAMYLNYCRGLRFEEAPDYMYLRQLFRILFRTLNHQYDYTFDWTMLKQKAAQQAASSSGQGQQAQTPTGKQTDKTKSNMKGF
T6 sequence (Q96SW2 whole entry): as the sequence (Q96SW2 whole entry) above
T6 sequence (Q16531 whole entry partner): as the sequence (Q16531 whole entry partner) above
T5 sequence (P30291 whole entry): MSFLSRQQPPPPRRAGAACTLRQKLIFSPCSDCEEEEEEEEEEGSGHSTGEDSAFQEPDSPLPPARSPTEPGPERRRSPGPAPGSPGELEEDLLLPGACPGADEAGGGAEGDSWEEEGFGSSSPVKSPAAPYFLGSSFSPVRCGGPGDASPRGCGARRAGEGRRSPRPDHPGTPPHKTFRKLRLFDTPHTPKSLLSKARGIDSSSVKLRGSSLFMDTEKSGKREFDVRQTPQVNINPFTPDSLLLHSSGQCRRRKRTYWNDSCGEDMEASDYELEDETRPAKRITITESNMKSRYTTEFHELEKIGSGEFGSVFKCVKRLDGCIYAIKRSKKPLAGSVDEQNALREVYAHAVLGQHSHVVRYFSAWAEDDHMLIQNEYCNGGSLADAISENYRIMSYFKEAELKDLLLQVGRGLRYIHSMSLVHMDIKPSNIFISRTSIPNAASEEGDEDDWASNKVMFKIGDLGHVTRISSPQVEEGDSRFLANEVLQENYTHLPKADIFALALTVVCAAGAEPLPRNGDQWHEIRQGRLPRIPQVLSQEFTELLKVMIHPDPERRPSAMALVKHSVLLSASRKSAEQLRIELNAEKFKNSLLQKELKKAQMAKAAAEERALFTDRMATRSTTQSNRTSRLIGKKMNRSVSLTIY
T5 sequence (Q96SW2 whole entry): as the sequence (Q96SW2 whole entry) above
T5 sequence (Q16531 whole entry partner): as the sequence (Q16531 whole entry partner) above
T2 sequence (P15170 whole entry): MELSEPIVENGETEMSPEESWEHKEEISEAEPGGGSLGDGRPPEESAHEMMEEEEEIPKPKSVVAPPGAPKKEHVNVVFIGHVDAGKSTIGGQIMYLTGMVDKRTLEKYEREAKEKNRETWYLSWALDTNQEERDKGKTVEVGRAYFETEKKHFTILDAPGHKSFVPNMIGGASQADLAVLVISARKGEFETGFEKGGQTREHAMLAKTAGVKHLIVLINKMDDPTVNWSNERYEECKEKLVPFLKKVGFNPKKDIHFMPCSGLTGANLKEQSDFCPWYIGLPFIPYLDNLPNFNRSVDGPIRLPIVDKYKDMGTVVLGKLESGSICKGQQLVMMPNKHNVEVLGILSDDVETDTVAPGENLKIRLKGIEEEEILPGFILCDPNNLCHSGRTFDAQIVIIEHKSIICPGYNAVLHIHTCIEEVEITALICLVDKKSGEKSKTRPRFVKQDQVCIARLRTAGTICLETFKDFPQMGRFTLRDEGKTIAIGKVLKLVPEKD
T2 sequence (Q96SW2 whole entry): as the sequence (Q96SW2 whole entry) above
T2 sequence (Q16531 whole entry partner): as the sequence (Q16531 whole entry partner) above

Row | SMILES | IKZF1 substrate protein remaining % (IKZF1) | GSPT1 substrate protein remaining % (GSPT1) | IKZF2 substrate protein remaining % (IKZF2) | IKZF3 substrate protein remaining % (IKZF3) | WEE1 substrate protein remaining % (WEE1) | CK1α substrate protein remaining % (CK1α)
1 | O=C1CCN(N2C(=O)c3ccc(CN4CCN(c5cnnc(Cl)c5Cl)CC4)cc3C2=O)C(=O)N1 [GT-07035, 5-((4-(5,6-dichloropyridazin-4-yl)piperazin-1-yl)methyl)-2-(2,4-dioxotetrahydropyrimidin-1(2H)-yl)isoindoline-1,3-dione] | B (80%< substrate protein remaining % ≤100%) | A (0% ≤ substrate protein remaining % ≤80%) | B (80%< substrate protein remaining % ≤100%) | A (0% ≤ substrate protein remaining % ≤80%) | B (80%< substrate protein remaining % ≤100%) | A (0% ≤ substrate protein remaining % ≤80%)
2 | O=C1CCN(N2C(=O)c3ccc(CN4CCN(c5cc(Cl)nnc5Cl)CC4)cc3C2=O)C(=O)N1 [GT-07036, 5-((4-(3,6-dichloropyridazin-4-yl)piperazin-1-yl)methyl)-2-(2,4-dioxotetrahydropyrimidin-1(2H)-yl)isoindoline-1,3-dione] | B (80%< substrate protein remaining % ≤100%) | A (0% ≤ substrate protein remaining % ≤80%) | B (80%< substrate protein remaining % ≤100%) | B (80%< substrate protein remaining % ≤100%) | B (80%< substrate protein remaining % ≤100%) | B (80%< substrate protein remaining % ≤100%)
3 | O=C1CCN(N2C(=O)c3ccc(CN4CCN(c5ncncn5)CC4)cc3C2=O)C(=O)N1 [GT-07037, 5-((4-(1,3,5-triazin-2-yl)piperazin-1-yl)methyl)-2-(2,4-dioxotetrahydropyrimidin-1(2H)-yl)isoindoline-1,3-dione] | B (80%< substrate protein remaining % ≤100%) | A (0% ≤ substrate protein remaining % ≤80%) | B (80%< substrate protein remaining % ≤100%) | B (80%< substrate protein remaining % ≤100%) | B (80%< substrate protein remaining % ≤100%) | B (80%< substrate protein remaining % ≤100%)
4 | O=C1CCN(N2C(=O)c3ccc(CN4CCN(c5c(Cl)cncc5Cl)CC4)cc3C2=O)C(=O)N1 [GT-07038, 5-((4-(3,5-dichloropyridin-4-yl)piperazin-1-yl)methyl)-2-(2,4-dioxotetrahydropyrimidin-1(2H)-yl)isoindoline-1,3-dione] | A (0% ≤ substrate protein remaining % ≤80%) | A (0% ≤ substrate protein remaining % ≤80%) | A (0% ≤ substrate protein remaining % ≤80%) | A (0% ≤ substrate protein remaining % ≤80%) | A (0% ≤ substrate protein remaining % ≤80%) | A (0% ≤ substrate protein remaining % ≤80%)
5 | O=C1CCN(N2Cc3cc(CN4CCN(c5ccnc(Cl)c5F)CC4)ccc3C2=O)C(=O)N1 [GT-07069, 1-(5-((4-(2-chloro-3-fluoropyridin-4-yl)piperazin-1-yl)methyl)-1-oxoisoindolin-2-yl)dihydropyrimidine-2,4(1H,3H)-dione] | B (80%< substrate protein remaining % ≤100%) | B (80%< substrate protein remaining % ≤100%) | B (80%< substrate protein remaining % ≤100%) | B (80%< substrate protein remaining % ≤100%) | A (0% ≤ substrate protein remaining % ≤80%) | B (80%< substrate protein remaining % ≤100%)
6 | O=C1CCN(N2C(=O)c3ccc(CN4CCN(c5ccncc5)CC4)cc3C2=O)C(=O)N1 [GT-07073, 2-(2,4-dioxotetrahydropyrimidin-1(2H)-yl)-5-((4-(pyridin-4-yl)piperazin-1-yl)methyl)isoindoline-1,3-dione] | B (80%< substrate protein remaining % ≤100%) | B (80%< substrate protein remaining % ≤100%) | B (80%< substrate protein remaining % ≤100%) | B (80%< substrate protein remaining % ≤100%) | A (0% ≤ substrate protein remaining % ≤80%) | B (80%< substrate protein remaining % ≤100%)
7 | O=C1CCN(N2Cc3cc(CN4CCN(c5cnccn5)CC4)ccc3C2=O)C(=O)N1 [GT-07160, 1-(1-oxo-5-((4-(pyrazin-2-yl)piperazin-1-yl)methyl)isoindolin-2-yl)dihydropyrimidine-2,4(1H,3H)-dione] | B (80%< substrate protein remaining % ≤100%) | A (0% ≤ substrate protein remaining % ≤80%) | A (0% ≤ substrate protein remaining % ≤80%) | B (80%< substrate protein remaining % ≤100%) | B (80%< substrate protein remaining % ≤100%) | A (0% ≤ substrate protein remaining % ≤80%)
8 | Cc1cc(N2CCN(Cc3ccc4c(c3)C(=O)N(N3CCC(=O)NC3=O)C4=O)CC2)ccn1 [GT-07161, 2-(2,4-dioxotetrahydropyrimidin-1(2H)-yl)-5-((4-(2-methylpyridin-4-yl)piperazin-1-yl)methyl)isoindoline-1,3-dione] | B (80%< substrate protein remaining % ≤100%) | A (0% ≤ substrate protein remaining % ≤80%) | A (0% ≤ substrate protein remaining % ≤80%) | B (80%< substrate protein remaining % ≤100%) | B (80%< substrate protein remaining % ≤100%) | B (80%< substrate protein remaining % ≤100%)
9 | O=C1CCN(N2C(=O)c3ccc(CN4CCN(c5nccc(F)c5F)CC4)cc3C2=O)C(=O)N1 [GT-07162, 5-((4-(3,4-difluoropyridin-2-yl)piperazin-1-yl)methyl)-2-(2,4-dioxotetrahydropyrimidin-1(2H)-yl)isoindoline-1,3-dione] | B (80%< substrate protein remaining % ≤100%) | A (0% ≤ substrate protein remaining % ≤80%) | A (0% ≤ substrate protein remaining % ≤80%) | B (80%< substrate protein remaining % ≤100%) | B (80%< substrate protein remaining % ≤100%) | A (0% ≤ substrate protein remaining % ≤80%)
10 | O=C1CCN(N2C(=O)c3ccc(CN4CCN(c5ccncc5Br)CC4)cc3C2=O)C(=O)N1 [GT-07163, 5-((4-(3-bromopyridin-4-yl)piperazin-1-yl)methyl)-2-(2,4-dioxotetrahydropyrimidin-1(2H)-yl)isoindoline-1,3-dione] | B (80%< substrate protein remaining % ≤100%) | A (0% ≤ substrate protein remaining % ≤80%) | A (0% ≤ substrate protein remaining % ≤80%) | B (80%< substrate protein remaining % ≤100%) | B (80%< substrate protein remaining % ≤100%) | B (80%< substrate protein remaining % ≤100%)
11 | O=C1CCN(N2C(=O)c3ccc(CN4CCN(c5ccncc5F)CC4)cc3C2=O)C(=O)N1 [GT-07164, 2-(2,4-dioxotetrahydropyrimidin-1(2H)-yl)-5-((4-(3-fluoropyridin-4-yl)piperazin-1-yl)methyl)isoindoline-1,3-dione] | B (80%< substrate protein remaining % ≤100%) | A (0% ≤ substrate protein remaining % ≤80%) | A (0% ≤ substrate protein remaining % ≤80%) | B (80%< substrate protein remaining % ≤100%) | B (80%< substrate protein remaining % ≤100%) | B (80%< substrate protein remaining % ≤100%)
12 | O=C1CCN(N2C(=O)c3ccc(CN4CCN(c5ccncc5Cl)CC4)cc3C2=O)C(=O)N1 [GT-07165, 5-((4-(3-chloropyridin-4-yl)piperazin-1-yl)methyl)-2-(2,4-dioxotetrahydropyrimidin-1(2H)-yl)isoindoline-1,3-dione] | B (80%< substrate protein remaining % ≤100%) | A (0% ≤ substrate protein remaining % ≤80%) | A (0% ≤ substrate protein remaining % ≤80%) | B (80%< substrate protein remaining % ≤100%) | B (80%< substrate protein remaining % ≤100%) | B (80%< substrate protein remaining % ≤100%)
13 | O=C1CCN(N2C(=O)c3ccc(CN4CCN(c5ccnc(Cl)c5F)CC4)cc3C2=O)C(=O)N1 [GT-07166, 5-((4-(2-chloro-3-fluoropyridin-4-yl)piperazin-1-yl)methyl)-2-(2,4-dioxotetrahydropyrimidin-1(2H)-yl)isoindoline-1,3-dione] | B (80%< substrate protein remaining % ≤100%) | A (0% ≤ substrate protein remaining % ≤80%) | A (0% ≤ substrate protein remaining % ≤80%) | B (80%< substrate protein remaining % ≤100%) | B (80%< substrate protein remaining % ≤100%) | B (80%< substrate protein remaining % ≤100%)

From patent US20260356819A1, “OXOISOINDOLINYL-SUBSTITUTED […] DERIVATIVE AND USE THEREOF” (GLUETACS THERAPEUTICS (SHANGHAI) CO., LTD., priority 2023, published 2026)
